Source: US20080132520A1, “COMPOSITIONS, KITS AND METHODS FOR ADMINISTERING A TITRATION SCHEDULE COMPRISING BIFEPRUNOX COMPOUNDS” (priority 2006, published 2008)

What was measured:
[1] = Clinical investigations on bifeprunox mesylate: tolerability; settings: human, in vivo
[2] = Rapid titration study: efficacy assessments (PANSS, CGI-S, CGI-I); type: in vivo, human; settings: short treatment period, titration to 40 mg/day plus 3-day maintenance
Procedure: This study represented a randomized, double-blinded, placebo-controlled, sequential panel, rapid titration study of the safety and tolerability of bifeprunox compounds in subjects with schizophrenia. […] Efficacy assessments (i.e., Positive and Negative Symptoms of Schizophrenia (PANSS) and Clinical Global Impression-Severity (CGI-S) were performed at screening, Day-1 and at the final assessment; Clinical Global Impressions-improvement (CGI-I was performed at the final assessment only. […] The treatment phase lasted approximately two weeks, including follow-up assessment. Subjects remained hospitalized until the post-treatment follow-up assessment was completed or until their condition had clinically stabilized.

[3] = Randomized, double-blinded, placebo-controlled, sequential panel, rapid titration study: safety and tolerability; type: in vivo, human
Procedure: This study represented a randomized, double-blinded, placebo-controlled, sequential panel, rapid titration study of the safety and tolerability of bifeprunox compounds in subjects with schizophrenia. In particular, this study assessed the safety, tolerability and efficacy after a rapid titration of bifeprunox to a therapeutic dose of 40 mg/day in schizophrenia and schizoaffective subjects. Eligible subjects were hospitalized at the start of the screening period and entered a single-blind placebo run-in period (day -7 to -1) to assure that the 7-day antipsychotic drug-free criterion was met prior to bifeprunox titration. Subjects then began rapid titration at an initial bifeprunox starting dose of 0.25 mg with a high proposed therapeutic dose of 40 mg/day. Two titration schedules were evaluated in sequential order, with the titration period lasting 6 to 7 days depending on the titration schedule (Day 1 to Day 6 or 7).
Each listed dose in the titration schedule was administered once daily (QD) followed by the next higher dose the following day. […] Only one repeat dose, however, was allowed during the entire titration period. Upon reaching the high proposed dose of 40 mg/day, the subject entered a 3-day maintenance period for this dose. Final assessments were performed on the day after the last maintenance period dose and follow-up assessments were performed 3 days after the last dose of study treatment.
Efficacy assessments (i.e., Positive and Negative Symptoms of Schizophrenia (PANSS) and Clinical Global Impression-Severity (CGI-S) were performed at screening, Day-1 and at the final assessment; Clinical Global Impressions-improvement (CGI-I was performed at the final assessment only. Safety was monitored throughout the study by assessment of physical examination, vital signs, adverse events (AEs), concomitant medications, clinical laboratory assessments, 12-lead electrocardiograms (ECGs), Simpson-Angus Scale (SAS) score and Barnes Akathisia Scale (BAS) score. The treatment phase lasted approximately two weeks, including follow-up assessment. Subjects remained hospitalized until the post-treatment follow-up assessment was completed or until their condition had clinically stabilized.
The study planned to include 20 subjects (10 subjects per panel). Twenty-seven subjects were screened and 18 were randomized (7 to bifeprunox and 1 to placebo in titration schedule 1 and 8 to bifeprunox and 2 to placebo titration schedule 2c). Ten subjects per panel were initially available as planned. Two subjects, however, dropped out of the first panel before the start of the study. As such, the study proceeded with the eighteen subjects.
Males and females between 18-55 years old meeting Diagnostic and Statistical Manual of Mental Disorders, 4th edition, Text Revised (DSM-IV TR) diagnosis of Schizophrenia disorder (295.10, 295.20, 295.30, 295.60 and 295.90) or Schizoaffevtive disorder (295.70).
Bifeprunox were tablets taken orally at a total daily dose of 0.25 mg to 40 mg in the following titration schedules:
Placebo tablets matching the bifeprunox tablets were taken orally using the same dosing regimen as the test product.

dopamine D2/3 receptors = settings: cited from earlier work
[4] = target: T1, serotonin 5-HT1A receptors (Homo sapiens, UniProt P08908); settings: cited from earlier work
T1 sequence (P08908 1-422): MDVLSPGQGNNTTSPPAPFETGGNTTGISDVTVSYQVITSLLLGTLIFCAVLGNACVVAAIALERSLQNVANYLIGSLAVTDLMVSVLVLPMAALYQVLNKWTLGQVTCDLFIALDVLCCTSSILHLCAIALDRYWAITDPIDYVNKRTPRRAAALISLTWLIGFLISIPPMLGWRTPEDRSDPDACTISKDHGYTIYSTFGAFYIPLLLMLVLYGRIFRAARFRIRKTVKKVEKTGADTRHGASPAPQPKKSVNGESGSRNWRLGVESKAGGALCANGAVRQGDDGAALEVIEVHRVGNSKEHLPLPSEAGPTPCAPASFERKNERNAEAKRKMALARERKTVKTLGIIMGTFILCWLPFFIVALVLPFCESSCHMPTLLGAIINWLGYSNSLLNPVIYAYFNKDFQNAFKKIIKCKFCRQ

| SMILES | tolerability during clinical investigations [1] | benefit over placebo in severity of symptoms of schizophrenia (PANSS total scores, CGI-S and CGI-I scores, responder rate) [2] | subjects with TEAEs leading to discontinuation of the study treatment ([3]; titration schedule 1) | subjects with at least 1 TEAE related to study treatment ([3]; titration schedule 1) | subjects with vital sign abnormalities on the same day as relevant AEs (dizziness or orthostatic hypotension) ([3]; titration schedule 1) | tolerability of daily increases to 20 to 40 mg once the 10 mg dose was reached ([3]; titration schedule 1) | subjects reporting at least one treatment emergent adverse event (TEAE) ([3]; titration schedule 1 (0.25, 1, 5, 10, 20, 40 mg QD oral over 6 days), 7 subjects on bifeprunox) | TEAEs at the 20 mg dose level ([3]; titration schedule 1, 20 mg dose level) | subjects reporting TEAEs considered to be severe ([3]; titration schedule 1, severe TEAEs at the 1, 5 and 10 dose levels) | TEAEs of anorexia, gait abnormal NOS or orthostatic hypotension ([3]; titration schedule 2c) | additional subjects requiring re-challenge of a dose level who completed titration up to 40 mg ([3]; titration schedule 2c) | subjects with TEAEs related to the study treatment ([3]; titration schedule 2c) | subjects with vital sign abnormalities same days as AEs of dizziness ([3]; titration schedule 2c) | subjects reporting at least one TEAE ([3]; titration schedule 2c (0.25, 0.5, 2, 5, 10, 20, 40 mg QD oral over 7 days), 8 subjects on bifeprunox) | tolerability of titration from 0.25 mg to 40 mg over 7 days versus over a 6-day period ([3]; titration schedule 2c versus 1) | subjects with TEAE leading to discontinuation of the study treatment ([3]; titration schedule 2c, TEAE of dizziness) | subjects reporting TEAEs considered to be severe ([3]; titration schedule 2c, severe TEAEs at the 2 mg and 5 mg dose level) | effects on BAS, SAS, ECG or clinical laboratory evaluations ([3]; titration schedules 1 and 2c) | functional activity at dopamine D2/3 receptors (dopamine D2/3 receptors) | functional activity at serotonin 5-HT1A receptors [4] |
| --- | --- | --- | --- | --- | --- | --- | --- | --- | --- | --- | --- | --- | --- | --- | --- | --- | --- | --- | --- | --- |
| CS(=O)(=O)O.O=c1[nH]c2cccc(N3CCN(Cc4cccc(-c5ccccc5)c4)CC3)c2o1 [bifeprunox mesylate, 7-[4-([1,1′-biphenyl]-3-ylmethyl)-1-piperazinyl]-2(3H)-benzoxazolone monomethane-sulfonate] | well tolerated | – | – | – | – | – | – | – | – | – | – | – | – | – | – | – | – | – | – | – |
| O=c1[nH]c2cccc(N3CCN(Cc4cccc(-c5ccccc5)c4)CC3)c2o1 [bifeprunox, 7-[4-([1,1′-biphenyl]-3-ylmethyl)-1-piperazinyl]-2(3H)-benzoxa-zolone] | – | little benefit | Three subjects | All subjects | Two subjects | well-tolerated | All subjects | No TEAEs occurred | Three subjects | no TEAEs | Two additional subjects | Six out of 8 | Four subjects | All subjects | better tolerated | One subject | Three subjects | Neither titration schedule of bifeprunox appeared to have any effects | partial agonist | partial agonist |
